Data: ChEMBL document CHEMBL4665675 (J Med Chem, 2020)
pIC50: −log10 of the molar value.

Columns and labels:
BALB/3T3 = experiment: Cytotoxicity against mouse BALB/3T3 cells incubated for 72 hrs by sulforhodamine B assay; type: cell-based; conditions: BALB/3T3, 72 h
[1] = Antiproliferative activity against human ALL5 cells incubated for 120 hrs by MTT assay; type: functional, cell-based; conditions: ALL5, 120 h
[2] = Antiproliferative activity against human LoVo/DX cells incubated for 72 hrs by sulforhodamine B assay; type: functional, cell-based
A549 [3] = experiment: Antiproliferative activity against human A549 cells incubated for 72 hrs by sulforhodamine B assay; type: functional, cell-based; conditions: A549, 72 h
LoVo = experiment: Antiproliferative activity against human LoVo cells incubated for 72 hrs by sulforhodamine B assay; type: functional, cell-based
MCF7 [4] = experiment: Antiproliferative activity against human MCF7 cells incubated for 72 hrs by sulforhodamine B assay; type: functional, cell-based; conditions: MCF7, 72 h
P388 = experiment: Antiproliferative activity against mouse P388 cells incubated for 72 hrs by Coulter counter method; type: functional, cell-based; conditions: P388, 72 h
MCF7 [5] = experiment: Cytotoxicity against human MCF7 cells; type: functional, cell-based
A2780 = experiment: Cytotoxicity against human A2780 cells; type: functional, cell-based
A549 [6] = experiment: Cytotoxicity against human A549 cells; type: functional, cell-based
Bel-7402 = experiment: Cytotoxicity against human BEL7402 cells; type: functional, cell-based
CCRF-CEM = experiment: Cytotoxicity against human CEM cells incubated for 48 to 72 hrs by Cell Titer 96 aqueous one solution cell proliferation assay; type: functional, cell-based
HeLa = experiment: Cytotoxicity against human HeLa cells after 24 to 72 hrs by Cell Titer Blue assay; type: cell-based

CCCCCCCCCC(=O)N[C@H]1CCc2c(Cl)c(OC)c(OC)c(OC)c2-c2ccc(SC)c(=O)cc21
pIC50 (BALB/3T3): 7.11 | pIC50 [1]: 7.11 | pIC50 [2]: 7.11 | pIC50 (A549 [3]): 7.11 | pIC50 (LoVo): 7.11 | pIC50 (MCF7 [4]): 7.11

COc1cc2c(c(OC)c1OC)-c1ccc(NN(C)C)c(=O)cc1[C@@H](NC(C)=O)CC2
pIC50 (P388): 7.60

CCCNc1ccc2c(cc1=O)[C@@H](NC(C)=O)CCc1cc(OC)c(OC)c(OC)c1-2
pIC50 (P388): 7.44

COc1cc2c(c(OC)c1OC)-c1ccc(NCCOC(=O)CCC(=O)OCCO[N+](=O)[O-])c(=O)cc1[C@@H](NC(C)=O)CC2
pIC50 (MCF7 [5]): 7.40 | pIC50 (A2780): 7.70 | pIC50 (A549 [6]): 7.40 | pIC50 (Bel-7402): 7.40

COc1cccc2c1C(=O)c1c(O)c3c(c(O)c1C2=O)C[C@@](O)(C(=O)CO)C[C@@H]3O[C@H]1C[C@H](N)[C@H](O)[C@H](C)O1 [DOXORUBICIN]
pIC50 (BALB/3T3): 7.04 | pIC50 [2]: 7.04 | pIC50 (A549 [3]): 7.04

COc1c(F)c2c(c(OC)c1OC)-c1ccc(SC)c(=O)cc1[C@@H](NC(C)=O)CC2
pIC50 (BALB/3T3): 6.94 | pIC50 [2]: 6.40 | pIC50 (A549 [3]): 7.96 | pIC50 (LoVo): 7.68 | pIC50 (MCF7 [4]): 8.00

CCOc1c(OC)c(OC)cc2c1-c1ccc(OC)c(=O)cc1[C@@H](NC(C)=O)CC2
pIC50 (CCRF-CEM): 7.92

COCCOc1c(OC)c(OC)cc2c1-c1ccc(OC)c(=O)cc1[C@@H](NC(C)=O)CC2
pIC50 (CCRF-CEM): 7.92

COc1cc2c(c(OC)c1OC)-c1ccc(NCCOC(=O)CCC(=O)OCCCCCO[N+](=O)[O-])c(=O)cc1[C@@H](NC(C)=O)CC2
pIC50 (MCF7 [5]): 7.40 | pIC50 (A2780): 7.70 | pIC50 (A549 [6]): 7.40 | pIC50 (Bel-7402): 7.40

CCC(=O)Oc1c(OC)c(OC)cc2c1-c1ccc(OC)c(=O)cc1[C@@H](NC(C)=O)CC2
pIC50 (CCRF-CEM): 7.92

COc1cc2c(c(OC)c1OC)-c1ccc(=N)c(O)cc1[C@@H](NC(C)=O)CC2
pIC50 (HeLa): 8.15

CCCOC(=O)N[C@H]1CCc2c(Cl)c(OC)c(OC)c(OC)c2-c2ccc(SC)c(=O)cc21
pIC50 (BALB/3T3): 8.10 | pIC50 [2]: 8.10 | pIC50 (A549 [3]): 8.10 | pIC50 (LoVo): 8.10 | pIC50 (MCF7 [4]): 8.10

COc1c(Br)c2c(c(OC)c1OC)-c1ccc(SC)c(=O)cc1[C@@H](NC(C)=O)CC2
pIC50 [2]: 6.87 | pIC50 (LoVo): 7.85

COc1c(Cl)c2c(c(OC)c1OC)-c1ccc(SC)c(=O)cc1[C@@H](N)CC2
pIC50 (BALB/3T3): 7.01 | pIC50 [2]: 7.01 | pIC50 (A549 [3]): 7.01 | pIC50 (LoVo): 7.01 | pIC50 (MCF7 [4]): 7.01

COCC(=O)N[C@H]1CCc2c(Cl)c(OC)c(OC)c(OC)c2-c2ccc(SC)c(=O)cc21
pIC50 (BALB/3T3): 8.30 | pIC50 [1]: 8.30 | pIC50 [2]: 8.30 | pIC50 (A549 [3]): 8.30 | pIC50 (LoVo): 8.30 | pIC50 (MCF7 [4]): 8.30

COc1cc2c(c(OC)c1OC)-c1ccc(NC(C)C)c(=O)cc1[C@@H](NC(C)=O)CC2
pIC50 (P388): 7.32

COc1c(Cl)c2c(c(OC)c1OC)-c1ccc(SC)c(=O)cc1[C@@H](NC(=O)C(C)C)CC2
pIC50 (BALB/3T3): 8.70 | pIC50 [1]: 8.70 | pIC50 [2]: 8.70 | pIC50 (A549 [3]): 8.70 | pIC50 (LoVo): 8.70 | pIC50 (MCF7 [4]): 8.70

COc1cc2c(c(OC)c1OC)-c1ccc(NCC(C)C)c(=O)cc1[C@@H](NC(C)=O)CC2
pIC50 (P388): 6.49

COc1c(Cl)c2c(c(OC)c1OC)-c1ccc(SC)c(=O)cc1[C@@H](NC(=O)OCCOCCO)CC2
pIC50 (BALB/3T3): 7.03 | pIC50 [2]: 7.03 | pIC50 (A549 [3]): 7.03 | pIC50 (LoVo): 7.03 | pIC50 (MCF7 [4]): 7.03

COc1cc2c(c(OCc3ccccc3Cl)c1OC)-c1ccc(OC)c(=O)cc1[C@@H](NC(C)=O)CC2
pIC50 (CCRF-CEM): 7.92

COc1c(Cl)c2c(c(OC)c1OC)-c1ccc(SC)c(=O)cc1[C@@H](NC(=O)OCCO)CC2
pIC50 (BALB/3T3): 7.40 | pIC50 [2]: 7.40 | pIC50 (A549 [3]): 7.40 | pIC50 (LoVo): 7.40 | pIC50 (MCF7 [4]): 7.40

COc1cc2c(c(OC)c1OC)-c1ccc(NCCOC(=O)CCC(=O)OCCCCO[N+](=O)[O-])c(=O)cc1[C@@H](NC(C)=O)CC2
pIC50 (MCF7 [5]): 7.40 | pIC50 (A2780): 7.70 | pIC50 (A549 [6]): 7.40 | pIC50 (Bel-7402): 7.40

COc1cc2c(c(OC)c1OC)-c1ccc(NCCOC(=O)CCC(=O)Oc3ccc(CO[N+](=O)[O-])cc3)c(=O)cc1[C@@H](NC(C)=O)CC2
pIC50 (MCF7 [5]): 7.77 | pIC50 (A2780): 7.70 | pIC50 (A549 [6]): 7.77 | pIC50 (Bel-7402): 7.77

COc1cc2c(c(OC)c1OC)-c1ccc(NCCCN(C)C)c(=O)cc1[C@@H](NC(C)=O)CC2
pIC50 (P388): < 5.00
